# Laboratory results: article PMC12021451 (Planta Medica, 2025)
# Structures can show the parent of a compound that is named as a salt.
# Assay: blood-to-plasma concentration ratio
# Format: in vitro ADME, human
# Conditions: range of 4 to 1000 ng/mL
row,SMILES,Effect of the compound concentration on the Rb value
1,Cn1c(=O)c2c(ncn2C)n(C)c1=O [Caffeine],not observed
2,"CN(C)CCCN1c2ccccc2CCc2ccccc21 [Imipramine, imipramine hydrochlorid]",not observed
3,C/C=C1/C[C@@H](C)[C@](O)(CO)C(=O)OCC2=CC[N@@+]3([O-])CC[C@@H](OC1=O)[C@@H]23 [Retrorsine N -oxide],no concentration dependency was observed
